As usually defined, the EC50 is the concentration giving half of the maximal effect.

Bounds are passed on as bounds.

The test concerns BJAB cells. Nature of the test: BJAB cell proliferation (Cell Titer Glo). Format: cell-based. The settings on record: Homo sapiens, read-out: EC50. In outline:
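EC50 values come from non-linear regression of luminescence (Cell Titer Glo), expressed relative to untreated wells. BJAB cells were incubated roughly 72 h at 37 °C with serial compound dilutions carrying 0.1% final DMSO.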
(ATP-based viability assays read luminescence as a measure of living cells.)
In the case of `Cc1cc(-c2c(C)nn(-c3nc(-c4ccc(Cl)c(Cl)c4)c(SC(C)C)s3)c2C(=O)O)cc(O[C@@H]2CCOC2)n1` [Compound 180, (R)-1-(4-(3,4-dichlorophenyl)-5-(isopropylthio)thiazol-2-yl)-3-methyl-4-(2-methyl-6-((tetrahydrofuran-3-yl)oxy)pyridin-4-yl)-1H-pyrazole-5-carboxylic Acid], the EC50 is 10 to 25 µM.

Take `COCCOc1cc(-c2c(C)nn(-c3nc(-c4ccc(Cl)c(Cl)c4)c(SC(C)C)s3)c2C(=O)O)cc(C)n1` [Compound 181, 1-(4-(3,4-dichlorophenyl)-5-(isopropylthio)thiazol-2-yl)-4-(2-(2-methoxyethoxy)-6-methylpyridin-4-yl)-3-methyl-1H-pyrazole-5-carboxylic Acid]: the EC50 was 10 to 25 µM.

On to `Cc1cc(-c2c(C)nn(-c3nc(-c4ccc(Cl)c(Cl)c4)c(SC(C)C)s3)c2C(=O)O)cc(O[C@H]2CCOC2)n1` [Compound 182, (S)-1-(4-(3,4-dichlorophenyl)-5-(isopropylthio)thiazol-2-yl)-3-methyl-4-(2-methyl-6-((tetrahydrofuran-3-yl)oxy)pyridin-4-yl)-1H-pyrazole-5-carboxylic acid], for which the EC50 was 10 to 25 µM.

In the case of `Cc1nn(-c2nc(C3=CCCCC3)c(SC(C)C)s2)c(C(=O)O)c1-c1cccc(F)c1` [Compound 183, 1-(4-(cyclohex-1-en-1-yl)-5-(isopropylthio)thiazol-2-yl)-4-(3-fluorophenyl)-3-methyl-1H-pyrazole-5-carboxylic Acid], the EC50 was in the range of 5 to 10 µM.

Consider `Cc1nn(-c2nc(C3=CCCC3)c(SC(C)C)s2)c(C(=O)O)c1-c1cccc(F)c1` [Compound 184, 1-(4-(cyclopent-1-en-1-yl)-5-(isopropylthio)thiazol-2-yl)-4-(3-fluorophenyl)-3-methyl-1H-pyrazole-5-carboxylic acid], for which the concentration for a half-maximal effect (EC50) was in the range of 10 to 25 µM.

With `COc1cc(Cl)cc(-c2c(C)nn(-c3nc(-c4ccccc4)c(SC(C)C)s3)c2C(=O)O)c1` [Compound 185, 4-(3-chloro-5-methoxyphenyl)-1-(5-(isopropylthio)-4-phenylthiazol-2-yl)-3-methyl-1H-pyrazole-5-carboxylic Acid], the concentration giving a half-maximal response (EC50) lay in the range of 10 to 25 µM.

Turning to `Cc1nn(-c2nc(-c3ccc(F)cc3)c(SC(C)C)s2)c(C(=O)O)c1-c1cccc(F)c1` [Compound 186, 4-(3-fluorophenyl)-1-(4-(4-fluorophenyl)-5-(isopropylthio)thiazol-2-yl)-3-methyl-1H-pyrazole-5-carboxylic Acid], the concentration giving a half-maximal response (EC50) was in the range of 1 to 5 µM.

`COc1ccc(-c2nc(-n3nc(C)c(-c4cccc(F)c4)c3C(=O)O)sc2SC(C)C)cc1` [Compound 187, 4-(3-fluorophenyl)-1-(5-(isopropylthio)-4-(4-methoxyphenyl)thiazol-2-yl)-3-methyl-1H-pyrazole-5-carboxylic Acid]: the concentration giving a half-maximal response (EC50) lay in the range of 10 to 25 µM.

For the compound `Cc1nn(-c2nc(-c3ccc(S(C)(=O)=O)cc3)c(SC(C)C)s2)c(C(=O)O)c1-c1cccc(F)c1` [Compound 188, 4-(3-fluorophenyl)-1-(5-(isopropylthio)-4-(4-(methylsulfonyl)phenyl)thiazol-2-yl)-3-methyl-1H-pyrazole-5-carboxylic Acid], the EC50 was > 40 µM.

Turning to `COc1cc(-c2nc(-n3nc(C)c(-c4cccc(F)c4)c3C(=O)O)sc2SC(C)C)ccc1F` [Compound 189, 1-(4-(4-fluoro-3-methoxyphenyl)-5-(isopropylthio)thiazol-2-yl)-4-(3-fluorophenyl)-3-methyl-1H-pyrazole-5-carboxylic Acid], the 50% effective concentration (EC50) fell in the range of 10 to 25 µM.

In the case of `Cc1cc(-c2c(C)nn(-c3nc(-c4ccc(Cl)c(C)c4)c(SC(C)C)s3)c2C(=O)O)cc(C)n1` [Compound 190, 1-(4-(4-chloro-3-methylphenyl)-5-(isopropylthio)thiazol-2-yl)-4-(2,6-dimethylpyridin-4-yl)-3-methyl-1H-pyrazole-5-carboxylic Acid], the half-maximal effective concentration (EC50) lay within 1 to 5 µM.

In the case of `Cc1cc(-c2nc(-n3nc(C)c(-c4cccc(F)c4)c3C(=O)O)sc2SC(C)C)ccc1Cl` [Compound 191, 1-(4-(4-chloro-3-methylphenyl)-5-(isopropylthio)thiazol-2-yl)-4-(3-fluorophenyl)-3-methyl-1H-pyrazole-5-carboxylic Acid], the EC50 is 1 to 5 µM.

Consider `Cc1cc(-c2c(C)nn(-c3nc(-c4cc(F)c(Cl)c(F)c4)c(SC(C)C)s3)c2C(=O)O)cc(C)n1` [Compound 192, 1-(4-(4-chloro-3,5-difluorophenyl)-5-(isopropylthio)thiazol-2-yl)-4-(2,6-dimethylpyridin-4-yl)-3-methyl-1H-pyrazole-5-carboxylic Acid], for which the concentration giving a half-maximal response (EC50) is 1 to 5 µM.

As to `Cc1nn(-c2nc(-c3cc(F)c(Cl)c(F)c3)c(SC(C)C)s2)c(C(=O)O)c1-c1cccc(F)c1` [Compound 193, 1-(4-(4-chloro-3,5-difluorophenyl)-5-(isopropylthio)thiazol-2-yl)-4-(3-fluorophenyl)-3-methyl-1H-pyrazole-5-carboxylic Acid], the EC50 fell in the range of 1 to 5 µM.

Consider `COc1cc(-c2nc(-n3nc(C)c(-c4cc(C)nc(C)c4)c3C(=O)O)sc2SC(C)C)ccc1Cl` [Compound 194, 1-(4-(4-chloro-3-methoxyphenyl)-5-(isopropylthio)thiazol-2-yl)-4-(2,6-dimethylpyridin-4-yl)-3-methyl-1H-pyrazole-5-carboxylic Acid], for which the concentration giving a half-maximal response (EC50) is 1 to 5 µM.

In the case of `COc1cc(-c2nc(-n3nc(C)c(-c4cccc(F)c4)c3C(=O)O)sc2SC(C)C)ccc1Cl` [Compound 195, 1-(4-(4-chloro-3-methoxyphenyl)-5-(isopropylthio)thiazol-2-yl)-4-(3-fluorophenyl)-3-methyl-1H-pyrazole-5-carboxylic Acid], the half-maximal effective concentration (EC50) fell in the range of 5 to 10 µM.

Regarding `Cc1cc(-c2c(C)nn(-c3nc(-c4ccc(C(F)(F)F)cc4)c(SC(C)C)s3)c2C(=O)O)cc(C)n1` [Compound 196, 4-(2,6-dimethylpyridin-4-yl)-1-(5-(isopropylthio)-4-(4-(trifluoromethyl)phenyl)thiazol-2-yl)-3-methyl-1H-pyrazole-5-carboxylic Acid], the EC50 was in the range of 1 to 5 µM.

As to `Cc1nn(-c2nc(-c3ccc(C(F)(F)F)cc3)c(SC(C)C)s2)c(C(=O)O)c1-c1cccc(F)c1` [Compound 197, 4-(3-fluorophenyl)-1-(5-(isopropylthio)-4-(4-(trifluoromethyl)phenyl)thiazol-2-yl)-3-methyl-1H-pyrazole-5-carboxylic Acid], the concentration for a half-maximal effect (EC50) was < 1 µM.

Turning to `COc1cc(-c2c(C)nn(-c3nc(-c4ccc(Cl)c(Cl)c4)c(SC(C)C)s3)c2C(=O)O)cc(C)n1` [Compound 199, 1-(4-(3,4-dichlorophenyl)-5-(isopropylthio)thiazol-2-yl)-4-(2-methoxy-6-methylpyridin-4-yl)-3-methyl-1H-pyrazole-5-carboxylic Acid], the EC50 fell in the range of 1 to 5 µM.

For `Cc1nn(-c2nc(-c3ccc(Cl)c(Cl)c3)c(SC(C)C)s2)c(C(=O)O)c1-c1cc(F)cc(OC2COC2)c1` [Compound 200, 1-(4-(3,4-dichlorophenyl)-5-(isopropylthio)thiazol-2-yl)-4-(3-fluoro-5-(oxetan-3-yloxy)phenyl)-3-methyl-1H-pyrazole-5-carboxylic Acid], the concentration for a half-maximal effect (EC50) fell in the range of 1 to 5 µM.

On to `Cc1nn(-c2nc(-c3cccc(F)c3)c(SC(C)C)s2)c(C(=O)O)c1-c1cccc(F)c1` [Compound 201a], for which the 50% effective concentration (EC50) lay in the range of 25 to 50 µM.

Consider `Cc1nn(-c2nc(-c3cc4ccccc4o3)c(SC(C)C)s2)c(C(=O)O)c1-c1cccc(F)c1` [Compound 201b], for which the EC50 was 10 to 25 µM.

As to `Cc1nn(-c2nc(-c3ccccc3)c(SC(C)C)s2)c(C(=O)O)c1-c1cccc(F)c1` [Compound 202, 4-(3-fluorophenyl)-1-(5-(isopropylthio)-4-phenylthiazol-2-yl)-3-methyl-1H-pyrazole-5-carboxylic acid], the half-maximal effective concentration (EC50) fell in the range of 10 to 25 µM.

In the case of `Cc1nn(-c2nc(-c3ccccc3)c(SC(C)C)s2)c(C(=O)O)c1-c1cnn(C)c1` [Compound 203, 1-(5-(isopropylthio)-4-phenylthiazol-2-yl)-1′,3-dimethyl-1H,1′H-[4,4′-bipyrazole]-5-carboxylic acid], the EC50 was > 40 µM.

On to `Cc1cc(-c2c(C)nn(-c3nc(-c4ccc(F)cc4)c(SC(C)C)s3)c2C(=O)O)cc(C)n1` [Compound 204, 4-(2,6-dimethylpyridin-4-yl)-1-(4-(4-fluorophenyl)-5-(isopropylthio)thiazol-2-yl)-3-methyl-1H-pyrazole-5-carboxylic acid], for which the EC50 lay within 1 to 5 µM.

Take `COc1cc(Cl)ccc1-c1nc(-n2nc(C)c(-c3cccc(F)c3)c2C(=O)O)sc1SC(C)C` [Compound 205, 1-(4-(4-chloro-2-methoxyphenyl)-5-(isopropylthio)thiazol-2-yl)-4-(3-fluorophenyl)-3-methyl-1H-pyrazole-5-carboxylic acid]: the EC50 was in the range of 1 to 5 µM.

As to `COc1cc(Cl)ccc1-c1nc(-n2nc(C)c(-c3cc(C)nc(C)c3)c2C(=O)O)sc1SC(C)C` [Compound 206, 1-(4-(4-chloro-2-methoxyphenyl)-5-(isopropylthio)thiazol-2-yl)-4-(2,6-dimethylpyridin-4-yl)-3-methyl-1H-pyrazole-5-carboxylic Acid], the concentration for a half-maximal effect (EC50) fell in the range of 1 to 5 µM.

Consider `Cc1ccc(-c2nc(-n3nc(C)c(-c4cccc(F)c4)c3C(=O)O)sc2SC(C)C)cc1Cl` [Compound 207, 1-(4-(3-chloro-4-methylphenyl)-5-(isopropylthio)thiazol-2-yl)-4-(3-fluorophenyl)-3-methyl-1H-pyrazole-5-carboxylic Acid], for which the EC50 is 5 to 10 µM.

`Cc1nn(-c2nc(-c3cc(C)c(=O)n(C)c3)c(SC(C)C)s2)c(C(=O)O)c1-c1cccc(F)c1` [Compound 208, 1-(4-(1,5-dimethyl-6-oxo-1,6-dihydropyridin-3-yl)-5-(isopropylthio)thiazol-2-yl)-4-(3-fluorophenyl)-3-methyl-1H-pyrazole-5-carboxylic Acid]: the EC50 is > 40 µM.

In the case of `Cc1nn(-c2nc(-c3cc(OC(F)(F)F)ccc3Cl)c(SC(C)C)s2)c(C(=O)O)c1-c1cccc(F)c1` [Compound 209, 1-(4-(2-chloro-5-(trifluoromethoxy)phenyl)-5-(isopropylthio)thiazol-2-yl)-4-(3-fluorophenyl)-3-methyl-1H-pyrazole-5-carboxylic acid], the EC50 lay in the range of 10 to 25 µM.

Values taken from patent US10537558B2 (Bantam Pharmaceutical, LLC, priority 2015, dated 2020).
